Test results taken from patent publication US9475841B2, “Melanoma antigen peptide and uses thereof” (INSERM (INSTITUT NATIONAL DE LA SANTE ET DE LA RECHERCHE …, priority 2012, dated 2016).

Key:
Type in all cases: cell-based, human
[1] = test system: MELOE-1 specific CD4 T cells; test: MELOE-1 CD4+ T cell responses in PBMC from melanoma patients: restimulation with peptides, CD4/IFN-γ (Th1) and CD4/IL4 (Th2) staining; conditions: for mean % of cytokine producing CD4 T cells, in positive microcultures (IFN-γ): Th1; for mean % of cytokine producing CD4 T cells, in positive microcultures (IL4): Th2; for Th1 responses (IFN-γ positive microcultures) / Th2 responses (IL4 positive microcultures): positive/tested microcultures
Protocol: PBMC from melanoma patients were stimulated with 10 μM of MELOE-1. After 14 days, the presence of CD4 T cells specific for the different regions of MELOE-1 was assessed by restimulating cells with MELOE-12-21, MELOE-111-30 and MELOE-122-46 peptides, followed by CD4/IFN-γ double staining for the detection of Th1 responses, and by CD4/IL4 double staining for Th2 responses. Between brackets is indicated the mean % of cytokine producing CD4 T cells, in positive microcultures.
(§1) PBMC from healthy donors or melanoma patients (2·10^5 cells/well) were cultured for 14 days with 10 μM of MELOE-1 whole antigen (46 amino acids) in RPMI medium supplemented with 8% HS, 50 IU/ml of rIL-2 (Chiron, France) and L-Glutamin, in 96-well multiplates. Microcultures were then restimulated individually with each overlapping peptide (MELOE-12-21, MELOE-111-30, MELOE-118-37, MELOE-12646 or MELOE-122-46 for melanoma patients) in the presence of 10 μg/mL brefeldin A for 5 hours and the percentage of CD4^+ specific T cells was assessed by TNF-α, IFN-γ or IL-4 intracellular staining. A negative control without peptide was included in all experiments.
In order to confirm the immunogenicity of each MELOE-1 regions in melanoma patients, we stimulated melanoma patients PBMC with the MELOE-1 whole protein, and tested the reactivity of stimulated lymphocytes towards the three most immunogenic regions: 2-21, 11-30, and 22-46. For this study, instead of challenging microcultures with the 18-37 peptide, that appeared poorly immunogenic, we extended the C-terminus region from 26-46 to 22-46, in order to also detect responses to our previously described HLA-DR11-restricted epitope (24-37). […] We tested the induction of CD4 specific responses from MELOE-1 stimulated PBMC of […] melanoma patients. We documented CD4 responses specific for the central region of MELOE-1 (11-30) for 7/9 patients, whereas responses specific for MELOE-12-21 and MELOE-122-46 were respectively detected in 4/9 and 5/9 patients (Table III). These responses were mainly Th1 responses (IFN-g production) while less frequent Th2 responses specific for the three regions of MELOE-1 were detected in 3/9 patients for MELOE-12-21, 2/9 patients for MELOE-111-30 and 5/9 patients for MELOE-122-46 (Table III). […] Concerning Th2 responses, much less frequent, the C-term region appeared to induce more frequently the growth of IL-4 producing CD4 T cells than the two other regions (FIG. 2A). […] In summary, stimulation of patient's PBMC with MELOE-1 induced Th1 responses specific for diverse epitopes located all along the protein sequence, and among the different regions, the central region (11-30) and the C-term region (22-46) appeared to be especially immunogenic in term of frequency of responses.

[2] = test system: MELOE-1 specific CD4+ T cells; test: MELOE-1 CD4+ T cell responses in PBMC from healthy donors: restimulation of microcultures with overlapping peptides, CD4/TNF-α staining; conditions: for Microcultures containing MELOE-1 specific CD4+ T cells (TNF-α production): positive/tested microcultures; for donors in which CD4 responses against the region were detected: seven healthy donors
Protocol: PBMC from healthy donors were stimulated with 10 μM of MELOE-1. After 14 days, the presence of CD4 T cells specific for the different regions of MELOE-1 was assessed by restimulating cells with MELOE-12-21, MELOE-111-30, MELOE-118-37 and MELOE-126-46 peptides, followed by CD4/TNF-α double staining and flow cytometry analysis. Between brackets is indicated the mean % of TNF-α producing CD4 T cells, in positive microcultures. NA: not available.
as §1
Our purpose was to look for the existence of class II helper epitopes all along MELOE-1 sequence (SEQ ID NO:20), in order to document the immunogenicity of the different regions of this melanoma antigen. We stimulated 2·10^7 PBMC from seven healthy donors with MELOE-1 whole antigen and tested, after a 14-day culture period the presence of CD4 T cells specific for each region of the protein. Microcultures were screened for TNFα production by CD4+ T cells, after restimulation with four MELOE-1 derived overlapping peptides (Table I), in an autopresentation assay. […] On the contrary, the central region 18-37, containing an already described DR11-restricted epitope (24-37) located just at the end of this 20-mer peptide (Rogel et al., 2011), induced specific responses in microcultures deriving from only 2/7 donors (HD9 and HD17, both expressing the DR11 element). In these two donors, we detected 6 and 7% of positive microcultures, containing between 0.6 to 3.7% of TNFα producing CD4 T cells.

[3] = test system: CD4 T cell clone 4E2-DQβ1*0201; test: Cytokine profile of CD4 T cell clone stimulated with cognate peptide (intracellular staining); conditions: cognate peptide 10 μM, 5 hours
Protocol: Lymphocytes were stimulated for 5 hours in the presence of brefeldin A (10 μg/mL) either with peptide alone (10 μM) in an autopresentation assay or with B-EBV or HLA-class II expressing melanoma cells pulsed 2 hours with the cognate peptide, at a ratio 1:2. In some experiments, blocking mAb against HLA-DP (clone B7.21 from Dr Charron, UMR940, Paris), HLA-DQ (clone SPVL3, Beckman Coulter) or HLA-DR (clone L243, BD Biosciences) were added at a concentration of 12.5 μg/ml. Cells were then stained with APC-conjugated anti-CD4 mAb, fixed with 4% paraformaldehyde, labeled with PE-conjugated anti-cytokine mAb and analyzed by flow cytometry.
We also documented the T helper profile of each T cell clone, by stimulating the CD4 T cell clones with the cognate peptide, and analyzing cytokine production. All the clones expressed Th1 cytokines (TNFα, IFNγ, IL2 and GM-CSF). On the contrary, these clones differ in their expression of Th2 cytokines. Indeed, the two DQ2 restricted T cell clones (9C12 and 4E2) and the DR1 restricted one (5F9) also strongly express two Th2 cytokines (IL4, and IL13), whereas the DR11-restricted T cell clone only weakly expressed IL4 (Table IV). None of the CD4 T cell expresses IL10 or IL5 at a significant level.

[4] = donor HD9 (DPβ1*0902/1501, DQβ1*0301, DRβ1*1104/1201)
[5] = donor HD17 (DPβ1*0401/0301, DQβ1*0301/0603, DRβ1*1101/1301)
[6] = donor HD22 (DPβ1*0401/1101, DQβ1*0202, DRβ1*0701)
[7] = donor HD24 (DPβ1*0401/0101, DQβ1*0501/0602, DRβ1*0101/1501)
[8] = donor HD25 (DPβ1*0401/0402, DQβ1*0201, DRβ1*0301)
[9] = donor HD27 (DQβ1*501/0201, DRβ1*0101/0301)

Sequence: AACPPWHPSERISSTLNDECWPASL [MELOE-122-46]
- Th1 responses, % of tested microcultures ([1]; 576 tested microcultures from melanoma patients, IFN-γ): 9.6%
- patients in which Th2 responses were detected ([1]; melanoma patients, IL4): 5/9
- patients in which CD4 responses specific for the region were detected ([1]; melanoma patients, Table III, Th1 (IFN-γ)): 5/9
- mean % of cytokine producing CD4 T cells, in positive microcultures (IFN-γ) ([1]; patient Pt ≠ 1): (4.8% ± 7.2)
- mean % of cytokine producing CD4 T cells, in positive microcultures (IL4) ([1]; patient Pt ≠ 1): (0.8% ± 0.3)
- Th1 responses (IFN-γ positive microcultures) ([1]; patient Pt ≠ 1): 11/48
- Th2 responses (IL4 positive microcultures) ([1]; patient Pt ≠ 1): 4/48
- mean % of cytokine producing CD4 T cells, in positive microcultures (IFN-γ) ([1]; patient Pt ≠ 2): (0.6% ± 0.02)
- Th1 responses (IFN-γ positive microcultures) ([1]; patient Pt ≠ 2): 2/96
- Th2 responses (IL4 positive microcultures) ([1]; patient Pt ≠ 2): 0/96
- Th1 responses (IFN-γ positive microcultures) ([1]; patient Pt ≠ 3 (DPβ1*0201/2001, DQβ1*0303/0501, DRβ1*0101/0701)): 4/96
- mean % of cytokine producing CD4 T cells, in positive microcultures (IFN-γ) ([1]; patient Pt ≠ 3): (1.9% ± 1.3)
- Th2 responses (IL4 positive microcultures) ([1]; patient Pt ≠ 3): 0/96
- Th1 responses (IFN-γ positive microcultures) ([1]; patient Pt ≠ 4): 0/48
- Th2 responses (IL4 positive microcultures) ([1]; patient Pt ≠ 4): 0/48
- mean % of cytokine producing CD4 T cells, in positive microcultures (IL4) ([1]; patient Pt ≠ 5): (0.8%)
- Th1 responses (IFN-γ positive microcultures) ([1]; patient Pt ≠ 5): 0/48
- Th2 responses (IL4 positive microcultures) ([1]; patient Pt ≠ 5): 1/48
- Th1 responses (IFN-γ positive microcultures) ([1]; patient Pt ≠ 6): 0/48
- Th2 responses (IL4 positive microcultures) ([1]; patient Pt ≠ 6): 0/48
- mean % of cytokine producing CD4 T cells, in positive microcultures (IFN-γ) ([1]; patient Pt ≠ 7): (2.9% ± 3.5)
- mean % of cytokine producing CD4 T cells, in positive microcultures (IL4) ([1]; patient Pt ≠ 7): (1.5% ± 0.7)
- Th1 responses (IFN-γ positive microcultures) ([1]; patient Pt ≠ 7): 28/48
- Th2 responses (IL4 positive microcultures) ([1]; patient Pt ≠ 7): 7/48
- mean % of cytokine producing CD4 T cells, in positive microcultures (IFN-γ) ([1]; patient Pt ≠ 8): (0.5%)
- mean % of cytokine producing CD4 T cells, in positive microcultures (IL4) ([1]; patient Pt ≠ 8): (0.6%)
- Th1 responses (IFN-γ positive microcultures) ([1]; patient Pt ≠ 8): 1/48
- Th2 responses (IL4 positive microcultures) ([1]; patient Pt ≠ 8): 1/48
- mean % of cytokine producing CD4 T cells, in positive microcultures (IL4) ([1]; patient Pt ≠ 9): (0.7% ± 0.15)
- Th1 responses (IFN-γ positive microcultures) ([1]; patient Pt ≠ 9): 0/48
- Th2 responses (IL4 positive microcultures) ([1]; patient Pt ≠ 9): 3/48

Sequence: PSEGAACPPWHPSERISSTL [MELOE-118-37]
- mean % of TNF-α producing CD4 T cells, in positive microcultures ([2]; donor HD9): (1.4% ± 0.6)
- Microcultures containing MELOE-1 specific CD4+ T cells (TNF-α production) [2, 4]: 6/96
- mean % of TNF-α producing CD4 T cells, in positive microcultures ([2]; donor HD17): (3% ± 0.7)
- Microcultures containing MELOE-1 specific CD4+ T cells (TNF-α production) [2, 5]: 7/96
- Microcultures containing MELOE-1 specific CD4+ T cells (TNF-α production) [2, 6]: 0/96
- Microcultures containing MELOE-1 specific CD4+ T cells (TNF-α production) [2, 7]: 0/96
- Microcultures containing MELOE-1 specific CD4+ T cells (TNF-α production) [2, 8]: 0/96
- Microcultures containing MELOE-1 specific CD4+ T cells (TNF-α production) [2, 9]: 0/96
- Microcultures containing MELOE-1 specific CD4+ T cells (TNF-α production) ([2]; donor HD28 (DRβ1*0301)): 0/48
- % of positive microcultures ([2]; healthy donor HD9 (first of the two donors named)): 6%
- % of positive microcultures ([2]; healthy donor HD17 (second of the two donors named)): 7%
- donors in which CD4 responses against the region were detected [2]: 2/7

Sequence: PWHPSERISSTLNDECWPASL [MELOE-126-46]
- mean % of TNF-α producing CD4 T cells, in positive microcultures ([2]; donor HD9): (1.5% ± 0.5)
- Microcultures containing MELOE-1 specific CD4+ T cells (TNF-α production) [2, 4]: 5/96
- mean % of TNF-α producing CD4 T cells, in positive microcultures ([2]; donor HD17): (5.2% ± 4.1)
- Microcultures containing MELOE-1 specific CD4+ T cells (TNF-α production) [2, 5]: 10/96
- mean % of TNF-α producing CD4 T cells, in positive microcultures ([2]; donor HD22): (1% ± 0.1)
- Microcultures containing MELOE-1 specific CD4+ T cells (TNF-α production) [2, 6]: 2/96
- Microcultures containing MELOE-1 specific CD4+ T cells (TNF-α production) [2, 7]: 0/96
- mean % of TNF-α producing CD4 T cells, in positive microcultures ([2]; donor HD25): (1.1% ± 0.9)
- Microcultures containing MELOE-1 specific CD4+ T cells (TNF-α production) [2, 8]: 15/96
- Microcultures containing MELOE-1 specific CD4+ T cells (TNF-α production) [2, 9]: 0/96
- Microcultures containing MELOE-1 specific CD4+ T cells (TNF-α production) ([2]; donor HD28 (DRβ1*0301)): 0/96
- donors in which CD4 responses against the region were detected [2]: 4 out of 7
- Cytokine profile: GM-CSF [3]: GM-CSF^high
- Cytokine profile: IFN [3]: IFN^high
- Cytokine profile: IL2 [3]: IL2^high
- Cytokine profile: IL4 [3]: IL4^high
- Cytokine profile: IL5 [3]: IL5^low
- Cytokine profile: IL10 [3]: IL10^neg
- Cytokine profile: IL13 [3]: IL13^high
- Cytokine profile: TNF [3]: TNF^high
